Reference: a melting point compilation (Tetko et al.; mined from patent text by program, amines drawn as free bases though some values may be those of a salt)

| SMILES | melting point |
| --- | --- |
| CCc1cccc(C)c1CNc1cc(C(=O)O)cn2nc(C)nc12 | 264 °C |
| Oc1ccc(Sc2cccc(O)n2)cc1 | 234 to 238 °C |
| Cc1cc(NC(=O)NC(=O)c2ccccc2N2CCOCC2)ccc1Oc1ncc(Br)cn1 | 67 to 70 °C |
| CC(C)(C)N1CCN(c2cc3c(cc2F)c(=O)c(C(=O)O)cn3C(C)(C)C)CC1 | > 270 °C |
| CCOc1cccc(CNC(=O)[C@H]2N(C(=O)[C@@H](O)[C@H](Cc3ccccc3)NC(=O)c3cccc(O)c3C)CSC2(C)C)c1 | 105 to 107 °C |
| Cc1nnc(-c2ccc3occ(-c4ccc(C(=O)N5CCCC5)c(F)c4)c3c2)o1 | 195 to 196 °C |
| CCOC(=O)NC(C)Cn1cc(-c2ccccc2)c2ccccc2c1=O (configuration not stated) | 182 °C |
| Nc1c(O)c2ccccc2oc1=O | 400 °C |
| CCC1(c2ccncc2)CCC(=O)NC1=O (configuration not stated) | 134 to 136 °C |
| ClC1=Nc2cc(Cl)ccc2Cn2cccc21 | 129 to 135 °C |
| CCOCc1nc2c(N)nc3cc(-c4ccccc4)ccc3c2n1CC(C)(C)NC(=O)NC1CCCCC1 | 152 to 156 °C |
| CC1(C(=O)O)CCc2onc(-c3ccc(Cl)cc3)c2CC1 (configuration not stated) | 163 °C |
| CCCCCCCCOc1ccc(OCc2ccc(C(=O)OC3CCC(CCC)(CCC)OC3=O)cc2)cc1 (configuration not stated) | 65 °C |
| CC1(C)OC(=O)C(Oc2cccc(N)n2)=C1c1ccc(S(C)(=O)=O)cc1 | 165 to 166 °C |
| CCOCc1nc2c(N)nc3cc(-c4cccc(C(=O)N5CCOCC5)c4)cnc3c2n1CC(C)(C)O | 149 to 152 °C |
| O=C1CCCCc2cc(I)ccc2N1 | 207 to 208 °C |
| CCNC(=O)Nc1cc(C(=O)OC)c(O)c2ncc(Cc3ccc(F)cc3)cc12 | 280 to 282 °C |
| CCCCCC1=CCC(c2cc(F)c(C#N)c(F)c2)C=C1 (configuration not stated) | 59 °C |
| Cc1cc(=O)[nH]c2c(C)cc(Br)cc12 | > 300 °C |
| Nc1ccccc1SC[C@H](NC(=O)OCc1ccccc1)C(=O)O | 161 to 162 °C |
| Nc1c2c(nc3[nH]c4ccccc4c13)CCCC2=O | > 300 °C |
| CC(=O)NCCC1CNc2ccc3c(c21)CCCO3 (configuration not stated) | 137 to 138 °C |
| COC(=O)CCc1c(O)ncc2cc(OC)c(OC)cc12 | 178 to 180 °C |
| O=S1(=O)CCN2C=CC=C(c3ccc(Oc4ccc(F)cc4)cc3)C2=N1 | 266 to 267 °C |
| CCOC(=O)c1cc2c(OCC3CO3)cc(C)cc2[nH]1 (configuration not stated) | 173 to 175 °C |

| SMILES | melting point |
| --- | --- |
| CON=C1CN(c2c(F)cc3c(=O)c(C(=O)O)cn(C4CC4)c3c2F)CC12CN(C(=O)OC(C)(C)C)C2 | 255 to 256 °C |
| Cc1csc2[nH]c(=O)n(CCC(C(=O)NO)N(C)S(=O)(=O)c3ccc(Oc4ccccc4)cc3)c(=O)c12 (configuration not stated) | 142 to 144 °C |
| CCOc1ccc2nc(NC(=O)CN3CCN(C(=O)CCCCCCC(=O)N(O)C(C)=O)CC3)sc2c1 | 98 to 103 °C |
| COc1cc(OCc2ccccn2)ccc1/C=C/c1cc(/C=C/c2cc3ccccc3s2)n[nH]1 | 231 to 232 °C |
| Nc1ccc(-n2cnc(-c3ccc(C(F)(F)F)cc3)n2)cc1Cl | 148 °C |
| CSC1=C(c2ccc(O)cc2)C(=O)c2cc(O)cc(O)c21 | 120 to 123 °C |
| O=C(O)C(CC1CCCCC1)c1ccc(OCc2ccc3ccccc3n2)cc1 (configuration not stated) | 148 to 150 °C |
| CC(C(=O)O)c1ccc(-c2ccc(F)cc2F)c(F)c1 (configuration not stated) | 105 to 108 °C |
| COC(=O)C1=Cc2cc(Br)ccc2N(C(=O)OC)CC1 | 135 to 136 °C |
| Cc1ccccc1-c1c(NC(=O)Nc2c(C)cccc2C)c(=O)oc2c(F)cc(F)cc12 | 221 to 222 °C |
| CN1C(=O)CC[C@]2(C)c3ccc(-c4ccccc4[N+](=O)[O-])cc3CC[C@@H]12 | 130 to 131 °C |
| CCOC(=O)C1=C(C)Nc2ccnc(OC(C)C)c2C1c1cccc(C(F)(F)F)c1 (configuration not stated) | 130 to 131 °C |
| N#CNC(=O)c1cc2cc(N3CCN(CCCCc4c[nH]c5ccc(C#N)cc45)CC3)ccc2o1 | 190 °C |
| Cc1nc2c(N)nc3ccccc3c2n1CCOCCN1CCCS1(=O)=O | 186 to 187 °C |
| CC(=O)Nc1cc2c(cc1[N+](=O)[O-])C(CC(C)C)C(=O)N2 (configuration not stated) | 192 to 197 °C |
| Cc1nc(N2CCOCC2)c2n1-c1ccc(Cl)cc1C(c1ccccc1F)=NC2 | 172 to 174 °C |
| CCOC(=O)c1cccc(NC(=O)NCC(=O)O)c1 | 174 °C |
| CC(=O)NCCC1CCc2ccc3nc(CO)oc3c21 (configuration not stated) | 132 to 134 °C |
| CS(=O)(=O)c1ccccc1C1CCCC2(C1)C(=O)Nc1ccccc12 (configuration not stated) | 190 to 191 °C |
| CC(S)C(=O)NCCS (configuration not stated) | 53 °C |
| Cc1cccc(NC(=O)NCC(=O)N(CC(=O)N2CCC(C)(C)CC2)c2ccccc2)c1 | 205 °C |
| CSc1nn2c(N(C)C)cc(C)nc2c1S(=O)(=O)c1ccc(Cl)cc1 | 221 to 223 °C |
| Cc1ccccc1-c1nc(-c2ccccc2Cl)sc1-c1ccc(S(C)(=O)=O)cc1 | 156 to 157 °C |
| O=C(O)c1ccc(C#Cc2ccccc2F)o1 | 196 to 198 °C |
| OCc1cc2cnc(Cl)nc2n1C1CCCC1 | 174 to 176 °C |

| SMILES | melting point |
| --- | --- |
| CN(C)c1ccc(NC(=O)NC2CCCC2)c(C(=O)NCC2CCN(C(c3ccccc3)c3ccccc3)CC2)c1 | 211 to 213 °C |
| CS(=O)(=O)N1CCCn2c(nc3c(N)nc4c(c32)CCCC4)C1 | 270 to 272 °C |
| COC(=O)CN1Cc2c([nH]c3ccccc23)C1=O | 215 to 217 °C |
| O=c1ccn(-c2cccc(OC(F)F)c2)nc1-c1ccnn1-c1ccccc1 | 159 to 160 °C |
| NS(=O)(=O)c1cc2[nH]c(-c3ccccc3)nc2cc1Cl | 314 to 316 °C |
| Cc1cc(C(=O)N(O)C2CCCCC2)c(C)o1 | 135 to 137 °C |
| Cn1c(NCc2cccc(NC(=O)C=Cc3ccccc3Cl)c2)nc2ccccc21 | 188 to 191 °C |
| CCCCCCNC(=O)c1cnc(Cl)nc1 | 101 to 102 °C |
| O=Cc1cccc(/C=C/c2ccc3ccc(Cl)cc3n2)c1 | 146 to 150 °C |
| CC(=O)n1cc(O)c2cc(Br)ccc21 | 180 to 182 °C |
| Cc1cc(C#N)c2c(c1C)C(=O)CC2 | 160 to 163 °C |
| Cc1cc(Cl)ccc1-n1nc(O)c2[nH]c3cc(Cl)ccc3c(=O)c2c1=O | 279 to 281 °C |
| O=C(c1ccc2nc[nH]c(=O)c2c1)c1ncc2ccccn12 | 289 °C |
| Cc1nc(-n2cnn(Cc3ccc(F)cc3)c2=O)sc1C(=O)NCc1cc[nH]n1 | 178 to 179 °C |
| CNC(=O)[C@@H](NC(=O)[C@@H](CC(C)C)C(C(=O)O)C(=O)O)C(C)(C)C | 101 °C |
| FC(F)(F)c1ccc(-c2nocc2CCl)cc1 | 84 to 85 °C |
| Cc1nc2ccccn2c(=O)c1CCN1CCC(C(=O)c2ccc(F)cc2)CC1 | 139 °C |
| Cc1cccc(N2CCN(CCc3ccc(-c4cccc(N)n4)cc3)CC2)c1 | 158 to 160 °C |
| COC(=O)C(C#N)=Cc1cc(-n2c(=O)cc(C(F)(F)F)n(C)c2=O)ccc1Cl | 187 to 188 °C |
| COC(C)(C)CN1CCC(CNC(=O)c2cc(Cl)c(N)n3cc(C)nc23)CC1 | 211 °C |
| O=c1n(F)nc(SC(Cl)Cl)n1-c1ccccc1 | 128 to 130 °C |
| CCn1nc(-c2c(-c3ccc(F)cc3)nn3ccc(OC)cc23)ccc1=O | 179 to 180 °C |
| CC(C)C(=O)NCCCC(=O)OC1c2ccccc2C(=O)N1c1ccc2ccc(Cl)nc2n1 (configuration not stated) | 208 °C |
| C=C1C(=CC=C2CCCC3(C)C2CCCC3C(C)CCCC(C)(C)O)CC(O)CC1O (configuration not stated) | 124 to 127 °C |
| CC#CC1CCC(c2ccc(C3CCC(CCC)CC3)cc2)CC1 (configuration not stated) | 134 °C |

| SMILES | melting point |
| --- | --- |
| Cc1nc(CN2CCc3sc(Nc4ncc(F)cn4)nc3-c3c[nH]nc32)no1 | 245 °C |
| N#Cc1ccc2c(c1)C(=O)CC1(CCCCC1)O2 | 92 to 93 °C |
| O=C(O)c1ccc(CNC(=O)C2Cc3ccccc3N2S(=O)(=O)c2ccc(-c3cccc(C(F)(F)F)c3)cc2)c(Cl)c1 (configuration not stated) | 110 to 120 °C |
| S=C(NCc1ccc2c(c1)OCO2)N1CCc2c([nH]c3ccccc23)C1c1ccc2c(c1)OCO2 (configuration not stated) | 97 to 100 °C |
| Cc1cc2c(cc1Sc1ccc(C(=O)O)cc1)C(C)(C)CCC2(C)C | 253 to 254 °C |
| Cc1ccc2c(c1)[nH]c(=O)n2CCO | 159 °C |
| CCOC(=O)N1CC2(C1)N=C(N)c1c(F)cccc1N2 | 210 to 212 °C |
| NS(=O)(=O)c1cccc(-c2noc(-c3cnn4c(C5CC5)cc(-c5ccc(Cl)cc5)nc34)n2)c1 | 285 °C |
| CC(C)(O)COc1c(-c2ccc(S(C)(=O)=O)cc2)cnn(-c2ccc(F)c(Cl)c2)c1=O | 122 to 124 °C |
| Cc1cc(-c2ncn3c(C(F)(F)F)cc(-c4ccc(F)c(Cl)c4)nc23)ccn1 | 255 °C |
| COC(=O)[C@@H](O)[C@H](CC(C)C)NC(=O)[C@H](Cc1c[nH]cn1)NC(=O)[C@H](Cc1cccc2ccccc12)NC(=O)OCc1ccccc1 | 110 to 114 °C |
| CS(=O)(=O)c1ccc(-c2cnn(-c3ccc(F)cc3)c(=O)c2COc2ccccc2)cc1 | 42 to 75 °C |
| CCCCCCCCCCCCCCOc1cccc(CC(=O)Nc2cccc(CBr)c2)c1 | 104 to 106 °C |
| Cc1ccc(N=C(Nc2ccc(C)cc2)ON2C(C)(C)CC(OC(=O)c3ccccc3)CC2(C)C)cc1 | 124 to 128 °C |
| Cc1cccc(-c2sc(N)nc2-c2ccnc(-c3ccc(OC(F)(F)F)cc3)c2)n1 | 232 °C |
| C#CCCCC(=O)Nc1nc2nn(C)cc2c2nc(-c3ccco3)nn12 | 210 to 216 °C |
| c1ccc(C(c2ccccc2)N2CCN(CCCCCCNc3ccc4ncnn4n3)CC2)cc1 | 130 to 132 °C |
| CC(CCC(=O)O)(c1ccc(OCc2ccc3ccccc3n2)c(Cl)c1)c1ccc(OCc2ccc3ccccc3n2)c(Cl)c1 | 91 to 94 °C |
| CCC(CO)(CO)NC(=O)Nc1ccccc1CCc1cc(C(C)(C)C)c(O)c(C(C)(C)C)c1 | 145 to 146 °C |
| CC(C)CCCC(C)C1CCC2C3=CC=C4CC(O)C(OCCCO)C(O)C4(C)C3CCC21C (configuration not stated) | 114 to 116 °C |
| CCOC(=O)c1cccc(NC(=O)C2=C(C)OCCS2)c1 | 100 to 102 °C |
| CCSC(F)(F)C(O)(Cn1cncn1)c1ccc(F)cc1F (configuration not stated) | 109 to 110 °C |
